Assay results as given in patent US20230079687A1, “ALKYLRESORCINOL HOMOLOGUES AS ANTIOXIDANTS” (The Penn State Research Foundation, priority 2021, published 2023).
Entries after “also recorded” stand apart in the source; their conditions may differ.

assay: Formation of lipid hydroperoxides in antioxidant-treated crackers during storage; conditions: 153 μmol antioxidant in crackers, 55° C., FIG. 1
Experimental: (§1) Based on the concentrations of the individual AR stock solutions previously determined, an appropriate volume, containing 153 μmol of the respective individual AR homologue, was measured into plastic centrifuge tubes to prepare individual AR homologue treatments. A treatment containing a mixture of the individual AR homologues, at their natural abundance in rye bran, was prepared by combining 25.3% of C17:0, 32.0% of C19:0, 22.6% of C21:0, 12.5% of C23:0, and 7.6% of C25:0. The same procedure was carried out with 10 mM stock solutions of orcinol, α-tocopherol, and butylated hydroxytoluene (BHT) and all treatments were dried under a stream of nitrogen. Ethanol (1.0 mL) was added to the dried treatments (and a control treatment containing no antioxidant) and mixed with 10 g of melted ISO. The antioxidant activity of each treatment was tested at 153 μmol because this corresponds to 500 ppm of C21:0 in the final cracker which is a typical antioxidant concentration used in bakery applications.
(§2) Antioxidant-treated ISO was melted at 90° C. for 10 minutes and mixed in a stand mixer (KSM95, KitchenAid, Benton Harbor, Mich., U.S.) using a beater blade for 1 minute (speed 2). Sifted flour, salt, and baking soda were added and mixed using a beater blade for 1 minute (speed 2). Water was added and mixed using a dough hook for 1 minute (speed 2). The additional flour was sprinkled onto the surface of a baking mat and incorporated into the dough by kneading by hand (30 folds). The dough was flattened by passing it through a pasta roller (KPSA, KitchenAid, Benton Harbor, Mich., U.S.) twice (thickness setting 2). The sheeted dough was cut into 2.5 cm×2.5 cm crackers and baked on an ungreased baking sheet for 9 minutes at 163° C. (FD 53-UL, Binder, Tuttlingen, Germany). After cooling to room temperature, crackers were coarsely crumbled using a mortar and pestle and weighed (0.5 g) into 10 mL amber glass headspace vials (Supelco Analytical, Bellefonte, Pa., U.S.), sealed with stainless steel screw caps with PTFE/silicone septa (Supelco Analytical, Bellefonte, Pa., U.S.), and allowed to autoxidize at 55° C. in the absence of light for up to 160 days. Crackers were analyzed for lipid hydroperoxides, headspace hexanal, and AR loss every 5 days for day 0-50, every 10 days for day 51-100, and every 20 days for the remainder of the storage time.
Lipid hydroperoxides were determined according to the method described by Shantha & Decker (1994) with slight modifications. Cracker samples (0.1 g) were finely ground using a mortar and pestle and mixed with 5.0 mL chloroform/methanol (2:1 (v/v)) by vortexing (10 seconds, 3 times). The hydroperoxide-containing lipid fraction was extracted and isolated by centrifugation at 2500×g for 10 minutes (Centrifuge 5702, A-4-38 Rotor, Eppendorf, Hamburg, Germany). To this extract (1.0 mL), 16.7 μL of an iron chloride solution (prepared by mixing 50 mL 66 mM FeSO4 in water with 50 mL 38 mM BaCl2 in 0.4 N HCl) was added followed by 16.7 μL of ammonium thiocyanate (3.9 M in water), and allowed to react at room temperature for 20 minutes. The absorbance of the samples was measured at 500 nm (GENESYS 180 UV-Vis Spectrophotometer, Thermo Fisher Scientific, Waltham, Mass., U.S.) and lipid hydroperoxides were quantified based on a standard curve prepared using cumene hydroperoxide.
Individual AR homologues (C17:0, C19:0, C21:0, C23:0, C25:0) were added separately and as a mixture (AR Mix) to ISO and subsequently incorporated into the cracker samples. The antioxidant activities of the AR homologues in crackers were compared to orcinol (a water-soluble AR), conventional antioxidants (i.e., α-tocopherol, BHT), and a control treatment (i.e., no added antioxidant). The crackers were allowed to autoxidize in the absence of light and primary (i.e., lipid hydroperoxides) and secondary products (i.e., headspace hexanal) of lipid oxidation were measured as a function of time.

SMILES	course of lipid hydroperoxide formation after the lag phase (in words)
Cc1cc(C(C)(C)C)c(O)c(C(C)(C)C)c1 [BHT, butylated hydroxytoluene]	slow, steady increase
CCCCCCCCCCCCCCCCCCCCCCCc1cc(O)cc(O)c1 [C23:0]	slow, steady increase
CCCCCCCCCCCCCCCCCCCCCCCCCc1cc(O)cc(O)c1 [C25:0]	slow, steady increase

same assay, conditions: 153 μmol antioxidant in crackers, 55° C., compared to control crackers

SMILES	activity concluded from lipid hydroperoxide formation
Cc1c(C)c2c(c(C)c1O)CC[C@@](C)(CCC[C@H](C)CCC[C@H](C)CCCC(C)C)O2 [α-tocopherol]	prooxidant activity

same assay, conditions: 153 μmol antioxidant in crackers, autoxidized at 55° C. in the absence of light, FIG. 1

SMILES	storage day at which lipid hydroperoxide concentration began to increase (end of lag phase)
Cc1cc(C(C)(C)C)c(O)c(C(C)(C)C)c1 [BHT, butylated hydroxytoluene]	25 days
CCCCCCCCCCCCCCCCCc1cc(O)cc(O)c1 [C17:0]	25 days
CCCCCCCCCCCCCCCCCCCc1cc(O)cc(O)c1 [C19:0]	25 days
CCCCCCCCCCCCCCCCCCCCCc1cc(O)cc(O)c1 [C21:0]	25 days
Cc1c(C)c2c(c(C)c1O)CC[C@@](C)(CCC[C@H](C)CCC[C@H](C)CCCC(C)C)O2 [α-tocopherol]	immediately upon storage

same assay, conditions: time to reach threshold [Hydroperoxides]=0.1 mM/g cracker, FIG. 3A

SMILES	order of induction periods for lipid hydroperoxides
Cc1cc(C(C)(C)C)c(O)c(C(C)(C)C)c1 [BHT, butylated hydroxytoluene]	AR Mix≈C23:0>C25:0>(C21:0≈C19:0)>(C19:0≈BHT)>(BHT≈orcinol)>(orcinol≈C17:0)>control>>α-tocopherol
CCCCCCCCCCCCCCCCCc1cc(O)cc(O)c1 [C17:0]	AR Mix≈C23:0>C25:0>(C21:0≈C19:0)>(C19:0≈BHT)>(BHT≈orcinol)>(orcinol≈C17:0)>control>>α-tocopherol
CCCCCCCCCCCCCCCCCCCc1cc(O)cc(O)c1 [C19:0]	AR Mix≈C23:0>C25:0>(C21:0≈C19:0)>(C19:0≈BHT)>(BHT≈orcinol)>(orcinol≈C17:0)>control>>α-tocopherol
CCCCCCCCCCCCCCCCCCCCCc1cc(O)cc(O)c1 [C21:0]	AR Mix≈C23:0>C25:0>(C21:0≈C19:0)>(C19:0≈BHT)>(BHT≈orcinol)>(orcinol≈C17:0)>control>>α-tocopherol
CCCCCCCCCCCCCCCCCCCCCCCc1cc(O)cc(O)c1 [C23:0]	AR Mix≈C23:0>C25:0>(C21:0≈C19:0)>(C19:0≈BHT)>(BHT≈orcinol)>(orcinol≈C17:0)>control>>α-tocopherol
CCCCCCCCCCCCCCCCCCCCCCCCCc1cc(O)cc(O)c1 [C25:0]	AR Mix≈C23:0>C25:0>(C21:0≈C19:0)>(C19:0≈BHT)>(BHT≈orcinol)>(orcinol≈C17:0)>control>>α-tocopherol
Cc1c(C)c2c(c(C)c1O)CC[C@@](C)(CCC[C@H](C)CCC[C@H](C)CCCC(C)C)O2 [α-tocopherol]	AR Mix≈C23:0>C25:0>(C21:0≈C19:0)>(C19:0≈BHT)>(BHT≈orcinol)>(orcinol≈C17:0)>control>>α-tocopherol

assay: Antioxidant activity in the low-moisture model cracker system (overall lipid oxidation study); conditions: 153 μmol antioxidant
Experimental: Based on the concentrations of the individual AR stock solutions previously determined, an appropriate volume, containing 153 μmol of the respective individual AR homologue, was measured into plastic centrifuge tubes to prepare individual AR homologue treatments. […] The same procedure was carried out with 10 mM stock solutions of orcinol, α-tocopherol, and butylated hydroxytoluene (BHT) and all treatments were dried under a stream of nitrogen. Ethanol (1.0 mL) was added to the dried treatments (and a control treatment containing no antioxidant) and mixed with 10 g of melted ISO. […] Antioxidant-treated ISO was melted at 90° C. for 10 minutes and mixed in a stand mixer (KSM95, KitchenAid, Benton Harbor, Mich., U.S.) using a beater blade for 1 minute (speed 2). […] flour, salt, and baking soda were added and mixed using a beater blade for 1 minute (speed 2). Water was added and mixed using a dough hook for 1 minute (speed 2). The additional flour was sprinkled onto the surface of a baking mat and incorporated into the dough by kneading by hand (30 folds). The dough was flattened by passing it through a pasta roller (KPSA, KitchenAid, Benton Harbor, Mich., U.S.) twice (thickness setting 2). The sheeted dough was cut into 2.5 cm×2.5 cm crackers and baked on an ungreased baking sheet for 9 minutes at 163° C. (FD 53-UL, Binder, Tuttlingen, Germany). […] Individual AR homologues (C17:0, C19:0, C21:0, C23:0, C25:0) were added separately and as a mixture (AR Mix) to ISO and subsequently incorporated into the cracker samples. The antioxidant activities of the AR homologues in crackers were compared to orcinol (a water-soluble AR), conventional antioxidants (i.e., α-tocopherol, BHT), and a control treatment (i.e., no added antioxidant). The crackers were allowed to autoxidize in the absence of light and primary (i.e., lipid hydroperoxides) and secondary products (i.e., headspace hexanal) of lipid oxidation were measured as a function of time.

SMILES	antioxidant activity in the low-moisture model cracker system (in words)
Cc1cc(C(C)(C)C)c(O)c(C(C)(C)C)c1 [BHT, butylated hydroxytoluene]	strong antioxidant activity
CCCCCCCCCCCCCCCCCCCCCCCc1cc(O)cc(O)c1 [C23:0]	optimum activity; also recorded: more effective than BHT
CCCCCCCCCCCCCCCCCCCCCCCCCc1cc(O)cc(O)c1 [C25:0]	more effective than BHT
Cc1c(C)c2c(c(C)c1O)CC[C@@](C)(CCC[C@H](C)CCC[C@H](C)CCCC(C)C)O2 [α-tocopherol]	strong prooxidant activity

assay: Formation of headspace hexanal in antioxidant-treated crackers during storage; conditions: 153 μmol antioxidant in crackers, 55° C., compared to control crackers
Experimental: as §1, §2
Cracker samples were prepared for GC-MS analysis by adding 10 μL of 100 mg/L 2-methypentanal (internal standard) in methanol directly through the capped headspace vial's septum. The GC system consisted of a 7890B gas chromatograph (Agilent, Santa Clara, Calif., U.S.) with sample introduction by means of an autosampler (Robotic MultiPurpose Sampler, Gerstel, Mülheim, Germany). Samples were equilibrated for 10 minutes at 55° C. with continuous shaking. A 50/30 μm divinylbenzene/carboxen/polydimethylsiloxane (DVB/CAR/PDMS) (1 cm) (Supelco Analytical, Bellefonte, Pa., U.S.) solid phase microextraction (SPME) fiber was exposed to the sample headspace for 2 minutes at 55° C. The SPME fiber was desorbed for 6 minutes at 250° C. in the injection port equipped with a SPME inlet liner at a split ratio of 10:1. Volatile aldehydes were separated on a Rtx-WAX capillary column (30 m, 0.25 mm i.d., 0.25 μm film thickness) (Restek, Bellefonte, Pa., U.S.). An oven program was followed to separate the different volatile aldehydes at a constant helium carrier gas flow rate of 1.22 mL/min. The oven program was as follows: hold at 40° C. for 1 minute; ramp at 10° C./min to 75° C.; ramp at 100° C./min to 250° C.; hold at 250° C. for 1.75 minutes. Detection and quantification of hexanal and 2-methylpentanal was achieved using a single quadrupole mass spectrometer (5977B, Agilent, Santa Clara, Calif., U.S.) coupled to the GC. The MS transfer line, quadrupole, and detector temperatures were set to 250° C., 230° C., 150° C., respectively. Mass spectra were collected in electron impact mode.

SMILES	activity concluded from headspace hexanal formation
Cc1c(C)c2c(c(C)c1O)CC[C@@](C)(CCC[C@H](C)CCC[C@H](C)CCCC(C)C)O2 [α-tocopherol]	prooxidant behavior

same assay, conditions: 153 μmol antioxidant in crackers, autoxidized at 55° C. in the absence of light, FIG. 2

SMILES	storage day at which headspace hexanal began to increase (end of lag phase)
CCCCCCCCCCCCCCCCCc1cc(O)cc(O)c1 [C17:0]	45 days
CCCCCCCCCCCCCCCCCCCc1cc(O)cc(O)c1 [C19:0]	50 days
CCCCCCCCCCCCCCCCCCCCCc1cc(O)cc(O)c1 [C21:0]	70 days
CCCCCCCCCCCCCCCCCCCCCCCc1cc(O)cc(O)c1 [C23:0]	still in the lag phase of lipid oxidation at the conclusion of the study
Cc1c(C)c2c(c(C)c1O)CC[C@@](C)(CCC[C@H](C)CCC[C@H](C)CCCC(C)C)O2 [α-tocopherol]	5 days

same assay, conditions: time to reach threshold [Hexanal]=1.0 mM/g cracker, FIG. 3B

SMILES	order of induction periods for headspace hexanal
Cc1cc(C(C)(C)C)c(O)c(C(C)(C)C)c1 [BHT, butylated hydroxytoluene]	C23:0>BHT>C25:0 AR Mix>C21:0>C19:0≈C17:0>control≈orcinol>>α-tocopherol
CCCCCCCCCCCCCCCCCc1cc(O)cc(O)c1 [C17:0]	C23:0>BHT>C25:0 AR Mix>C21:0>C19:0≈C17:0>control≈orcinol>>α-tocopherol
CCCCCCCCCCCCCCCCCCCc1cc(O)cc(O)c1 [C19:0]	C23:0>BHT>C25:0 AR Mix>C21:0>C19:0≈C17:0>control≈orcinol>>α-tocopherol
CCCCCCCCCCCCCCCCCCCCCc1cc(O)cc(O)c1 [C21:0]	C23:0>BHT>C25:0 AR Mix>C21:0>C19:0≈C17:0>control≈orcinol>>α-tocopherol
CCCCCCCCCCCCCCCCCCCCCCCc1cc(O)cc(O)c1 [C23:0]	C23:0>BHT>C25:0 AR Mix>C21:0>C19:0≈C17:0>control≈orcinol>>α-tocopherol
CCCCCCCCCCCCCCCCCCCCCCCCCc1cc(O)cc(O)c1 [C25:0]	C23:0>BHT>C25:0 AR Mix>C21:0>C19:0≈C17:0>control≈orcinol>>α-tocopherol
Cc1c(C)c2c(c(C)c1O)CC[C@@](C)(CCC[C@H](C)CCC[C@H](C)CCCC(C)C)O2 [α-tocopherol]	C23:0>BHT>C25:0 AR Mix>C21:0>C19:0≈C17:0>control≈orcinol>>α-tocopherol

assay: not given; conditions: literature, same low-moisture model cracker system; cited from earlier work

SMILES	antioxidant activity against formation of lipid hydroperoxides and hexanal
CCCCCCCCCCCCCCCCCCCCOC(=O)C(Cc1ccc(O)c(O)c1)OC(=O)C=Cc1ccc(O)c(O)c1 (centres unmarked) [eicosyl ester]	stronger antioxidant activity than rosmarinic acid and the dodecyl ester
O=C(/C=C/c1ccc(O)c(O)c1)O[C@H](Cc1ccc(O)c(O)c1)C(=O)O [rosmarinic acid]	weak antioxidant and prooxidant activity
